{"source": "patent US12247004B2", "about": "“2-amino-N-(amino-oxo-aryl-lambda6-sulfanylidene)acetamide compounds and their therapeutic use” (Oxford Drug Design Limited, priority 2019, dated 2025)", "key": {"[1]": {"molecular_target": "Isoleucyl-tRNA synthetase (IleRS) (Escherichia coli (strain K12), UniProt P00956)", "sequence (P00956 whole entry, looked up)": "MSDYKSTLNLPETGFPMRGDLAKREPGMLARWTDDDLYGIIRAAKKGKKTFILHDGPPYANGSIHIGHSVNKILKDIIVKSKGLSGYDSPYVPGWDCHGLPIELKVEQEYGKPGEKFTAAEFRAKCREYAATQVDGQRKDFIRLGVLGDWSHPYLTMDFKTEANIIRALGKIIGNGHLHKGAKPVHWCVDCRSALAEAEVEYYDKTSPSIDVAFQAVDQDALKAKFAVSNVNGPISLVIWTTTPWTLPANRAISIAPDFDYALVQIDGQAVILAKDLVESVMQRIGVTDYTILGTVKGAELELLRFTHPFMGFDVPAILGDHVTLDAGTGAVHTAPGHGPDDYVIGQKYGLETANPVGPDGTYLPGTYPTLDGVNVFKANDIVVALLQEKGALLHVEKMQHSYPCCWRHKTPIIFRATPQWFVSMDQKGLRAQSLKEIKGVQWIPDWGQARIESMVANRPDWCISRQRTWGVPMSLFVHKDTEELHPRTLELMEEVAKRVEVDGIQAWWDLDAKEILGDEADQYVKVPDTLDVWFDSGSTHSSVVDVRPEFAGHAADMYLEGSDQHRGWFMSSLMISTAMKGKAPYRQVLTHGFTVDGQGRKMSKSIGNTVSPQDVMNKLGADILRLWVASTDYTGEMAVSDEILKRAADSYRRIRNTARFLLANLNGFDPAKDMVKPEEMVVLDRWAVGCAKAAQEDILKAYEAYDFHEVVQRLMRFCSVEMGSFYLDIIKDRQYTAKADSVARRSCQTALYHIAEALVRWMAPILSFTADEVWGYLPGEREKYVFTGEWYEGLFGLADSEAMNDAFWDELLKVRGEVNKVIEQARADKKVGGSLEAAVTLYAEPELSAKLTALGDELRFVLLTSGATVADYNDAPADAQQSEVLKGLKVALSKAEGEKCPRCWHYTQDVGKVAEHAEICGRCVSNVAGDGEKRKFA", "assay": "Isoleucyl-tRNA synthetase enzyme inhibition (AMP-Glo; single point % inhibition at 100 μM and IC50)", "type": "biochemical", "details": "E. coli IleRS; read-out: Enzyme Inhibition - IC50, E. coli IleRS", "source_text": "Study 1—Enzyme Inhibition\nThe aminoacylation reaction catalyzed by aminoacyl-tRNA synthetases (aaRS) takes place in two steps. In the first step, aaRS activates its cognate amino acid with ATP; and in the second step the activated amino acid is loaded to its corresponding tRNA. This reaction can be summarized as follows: aaRS+aa+ATP=aaRS-aa-AMP+PPi aaRS-aa-AMP+tRNA=aa-tRNA+AMP+aaRS […]\nwherein: aaRS, aminoacyl-tRNA synthetase; aa, amino acid; aaRS-aa-AMP, enzyme-bound to aminoacyl-adenylate; AMP, adenosine monophosphate; aa-tRNA, aminoacyl-tRNA, PPi, inorganic pyrophosphate.\nIsoleucyl-tRNA Synthetase a. Single Point Percentage Inhibition\nThe activity of the pathogenic aaRSs was monitored by measuring AMP production using the commercial kit AMP-Glo (Promega, Madison, USA).\nLigand stock solutions were prepared in 100% DMSO at 10 mM concentration. An assay buffer consisting of 100 mM Tris HCl pH 7.6, 40 mM MgCl, 20 mM KCl and 150 mM NaCl was prepared in dH2O. An enzyme solution containing 51.77 μM IleRS was prepared in assay buffer to provide 30 nM final assay concentration and 75 nM reservoir concentration for a 1:2.5 dilution in the assay. A substrate solution was also prepared in assay buffer with 50 mM L-isoleucine, 10 mM ATP and 100 mg/mL tRNA. A final assay concentration of 500 μM L-isoleucine, 5 μM ATP and 1 mg/mL tRNA and reservoir concentration of 833.33 μM L-isoleucine, 8.33 μM ATP and 1.67 mg/mL tRNA was used for a 1:1.66 dilution in assay.\nEnzyme percentage inhibition values were recorded in triplicate at a single point concentration of 100 μM.\nUsing the same enzymatic assay in a 384-well plate format, ten point concentration response curves were generated for each compound using a top concentration of 100 μM. The known inhibitor, IleAMS was used as a positive control for the IleRS assay. 100% DMSO was used as a negative control. The IC50 was calculated based on non-linear regression analysis."}, "[2]": {"system": "bacteria (ATCC reference strains)", "assay": "Antibacterial activity, MIC by broth micro-dilution (CLSI)"}, "[3]": {"molecular_target": "Leucyl-tRNA synthetase (LeuRS) (Escherichia coli (strain K12), UniProt P07813)", "sequence (P07813 whole entry, looked up)": "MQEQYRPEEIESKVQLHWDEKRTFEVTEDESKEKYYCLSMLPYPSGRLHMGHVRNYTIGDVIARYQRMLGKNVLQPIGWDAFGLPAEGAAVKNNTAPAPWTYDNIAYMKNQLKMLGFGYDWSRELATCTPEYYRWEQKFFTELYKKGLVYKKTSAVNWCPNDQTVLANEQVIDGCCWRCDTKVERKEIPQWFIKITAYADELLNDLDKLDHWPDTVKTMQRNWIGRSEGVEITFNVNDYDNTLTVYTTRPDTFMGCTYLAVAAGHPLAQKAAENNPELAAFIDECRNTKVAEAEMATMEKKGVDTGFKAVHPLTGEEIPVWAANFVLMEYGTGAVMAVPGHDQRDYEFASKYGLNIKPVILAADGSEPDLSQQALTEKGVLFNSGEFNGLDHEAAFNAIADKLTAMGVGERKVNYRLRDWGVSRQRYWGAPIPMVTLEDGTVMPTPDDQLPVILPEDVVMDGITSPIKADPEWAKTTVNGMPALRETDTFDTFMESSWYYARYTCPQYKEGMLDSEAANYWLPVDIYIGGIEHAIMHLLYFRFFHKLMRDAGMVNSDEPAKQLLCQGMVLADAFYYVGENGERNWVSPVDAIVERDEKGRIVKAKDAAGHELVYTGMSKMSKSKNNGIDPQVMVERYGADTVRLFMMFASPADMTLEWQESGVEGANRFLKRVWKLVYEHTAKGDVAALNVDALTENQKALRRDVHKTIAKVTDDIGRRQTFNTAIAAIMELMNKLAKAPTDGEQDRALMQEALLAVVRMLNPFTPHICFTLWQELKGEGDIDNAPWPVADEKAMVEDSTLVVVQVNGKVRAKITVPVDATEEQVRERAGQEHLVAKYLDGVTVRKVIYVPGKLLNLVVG", "assay": "Leucyl-tRNA synthetase enzyme inhibition (AMP-Glo; single point % inhibition at 100 μM and IC50)", "type": "biochemical"}, "E. coli UT189": {"system": "E. coli UT189", "assay": "Efficacy in a murine model of urinary tract infection (microbial burden in urine, bladder, kidney)", "type": "in vivo", "details": "Experiment 2, mouse UTI", "description": "All animal studies were performed under UK Home Office License PA67E0BAA (protocol E9 for UTI model) with local ethical committee clearance. All studies were performed by technicians who have completed parts A, B and C of the UK Home Office Personal License course and hold current personal licenses. All experiments were performed in dedicated Biohazard 2 facilities (the site holds a Certificate of Designation). Female mice used in these studies were supplied by Janvier laboratories and were specific pathogen free. The strain of mouse used was C3H/HeNRj, which is a well characterized inbred strain. Mice were 16-20 g on receipt and were allowed to acclimatize for at least 7 days prior to any intervention. Five days prior to infection mice were transferred onto drinking water containing 5% glucose. […] It was stored at 4° C. between doses. Test articles were prepared by solubilising in water for injection, taking the salt correction factor into account. […] Mice (n=6 per group) were infected by directly administering 0.05 mL of inoculum via the urethra into the bladder under parenteral anaesthesia. Drinking water was withheld two hours pre-infection and bladders were emptied prior to infection. Once infected, infection catheters were left in the urinary tract for 10 minutes to reduce the risk of the organism flowing back out. The mice were monitored at a frequency appropriate for their clinical condition. Mouse weights were recorded at least once daily both to ensure animals remained within ethical limits and to monitor efficacy of treatment. Twenty-four hours post infection, urine was collected from pre-treatment animals and used to assess the infection level. Urine samples were quantitatively cultured onto MacConkey's agar plates and incubated at 37° C. for 24 hours before colonies were counted. In addition, five mice were euthanised by pentobarbitone overdose to provide a 24 hour pre-treatment control group. Forty-eight hours post-infection, urine was collected from all mice. Seventy-two hours post infection, the clinical condition and body weight of all remaining animals was assessed and urine samples were collected. Animals were then euthanised by pentobarbitone overdose and kidneys and bladders were removed and weighed. Tissue samples were homogenized using a Precellys 24 dual bead beater in 2 mL ice cold sterile phosphate buffered saline. Homogenates and urine samples were quantitatively cultured onto MacConkey's agar plates and incubated at 37° C. for 24 hours before colonies were counted. Data Analysis The data from the culture burdens were analysed using appropriate non-parametric statistical models (Kruskal-Wallis using Conover-Inman to make all pairwise comparisons between groups) with StatsDirect software, and compared to pretreatment and vehicle controls."}, "[4]": {"assay": "Human cell viability / cytotoxicity (CellTiter-Glo, 24 hours)", "type": "cell-based", "details": "human, HepG2 cells (ATCC HB-8065); HepG2 ATCC HB-8065, 24 hours; read-out: Cytotoxicity in HepG2 ATCC HB-8065 Cell Line, IC50", "summary_of_the_method": "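HepG2 cells (15,000/well, MEM with 1% NEAA and 1% pyruvate) were grown 2 days, then exposed to compounds in duplicate for 24 h at 1.28% DMSO. Viability was read as ATP by CellTiter-Glo luminescence relative to DMSO-only wells. IC50 is in μg/mL.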"}, "[5]": {"details": "Escherichia coli, ATCC25922, read-out: Antibacterial Activity (MIC), A = E. coli ATCC 25922"}, "[6]": {"details": "Acinetobacter baumannii, read-out: Antibacterial Activity (MIC), E = A. baumannii B1931"}, "[7]": {"details": "Enterobacter cloacae, read-out: Antibacterial Activity (MIC), B = Enterobacter cloacae B1966"}, "[8]": {"details": "Klebsiella pneumoniae, ATCC700603, read-out: Antibacterial Activity (MIC), C = K. pneumoniae ATCC 700603"}, "[9]": {"details": "Pseudomonas aeruginosa, ATCC27853, read-out: Antibacterial Activity (MIC), D = P. aeruginosa ATCC 27853"}, "[10]": {"details": "10 mg/kg/dose iv at 24, 36, 48 and 60 hr"}}, "note": "Read-outs that look alike come from different tables or passages of the source."}
{"smiles": "CC[C@H](C)[C@H](N)C(=O)N=[S@@](N)(=O)c1ccsc1Cl", "note": "[ANASIA-078-2]", "values": [{"measurement": "IC50", "setting": "[1]", "value": 0.599, "unit": "µM"}]}
{"smiles": "CC[C@H](C)[C@H](N)C(=O)N=[S@](N)(=O)c1cscc1C", "note": "[ANASIA-079-1]", "values": [{"measurement": "IC50", "setting": "[1]", "value": 19.8, "unit": "µM"}]}
{"smiles": "CC[C@H](C)[C@H](N)C(=O)N=[S@@](N)(=O)c1cscc1C.Cl", "note": "[ANASIA-079-2]", "values": [{"measurement": "IC50", "setting": "[1]", "value": 0.372, "unit": "µM"}, {"measurement": "MIC", "setting": "[2]; [5]", "value": 64, "unit": "µg/mL"}]}
{"smiles": "CC[C@H](C)[C@H](N)C(=O)N=[S@](N)(=O)c1csc(Cl)c1", "note": "[ANASIA-080-1]", "values": [{"measurement": "IC50", "setting": "[1]", "value": 1.14, "unit": "µM"}]}
{"smiles": "CC[C@H](C)[C@H](N)C(=O)N=[S@@](N)(=O)c1csc(Cl)c1", "note": "[ANASIA-080-2]", "values": [{"measurement": "IC50", "setting": "[1]", "value": 41.3, "unit": "µM"}]}
{"smiles": "CC[C@H](C)[C@H](N)C(=O)N=S(N)(=O)c1csc2ccsc12", "note": "(stereo partly drawn) [ANASIA-084]", "values": [{"measurement": "IC50", "setting": "[1]", "value": 2.82, "unit": "µM"}]}
{"smiles": "CC[C@H](C)[C@H](N)C(=O)N=[S@](N)(=O)c1ccc2c(c1)OCO2", "note": "[ANASIA-115-1]", "values": [{"measurement": "IC50", "setting": "[1]", "value": 4.7, "unit": "µM"}]}
{"smiles": "CC[C@H](C)[C@H](N)C(=O)N=[S@](N)(=O)c1scc(Br)c1Br", "note": "[ANASIA-116-1]", "values": [{"measurement": "IC50", "setting": "[1]", "value": 3.83, "unit": "µM"}]}
{"smiles": "CC[C@H](C)[C@H](N)C(=O)N=[S@@](N)(=O)c1scc(Br)c1Br", "note": "[ANASIA-116-2]", "values": [{"measurement": "IC50", "setting": "[1]", "value": 0.95, "unit": "µM"}]}
{"smiles": "CC1CCC(N)(C(=O)N=S(N)(=O)c2ccccc2)C1", "note": "(stereo not drawn) [ANASIA-123]", "values": [{"measurement": "IC50", "setting": "[3]; E. coli LeuRS, read-out: Enzyme Inhibition - IC50, E. coli LeuRS", "value": 4.87, "unit": "µM"}, {"measurement": "IC50", "setting": "[1]", "value": "> 100", "unit": "µM"}]}
{"smiles": "CC(C)C[C@H](N)C(=O)N=[S@](N)(=O)c1cc(Cl)cs1.Cl", "note": "[ANASIA-124-1]", "values": [{"measurement": "IC50", "setting": "[3]", "value": 0.0213, "unit": "µM"}, {"measurement": "Reduction in burden from vehicle control, Bladder 72 hr", "setting": "E. coli UT189; 15 mg/kg/dose sc every 4 hours", "value": "1.24 Log10 cfu/g or mL"}, {"measurement": "Reduction in burden from vehicle control, Kidney 72 hr", "setting": "E. coli UT189; 15 mg/kg/dose sc every 4 hours", "value": "1.60 Log10 cfu/g or mL"}, {"measurement": "Reduction in burden from vehicle control, Urine 48 hr", "setting": "E. coli UT189; 15 mg/kg/dose sc every 4 hours", "value": "0.71 Log10 cfu/g or mL"}, {"measurement": "Reduction in burden from vehicle control, Urine 72 hr", "setting": "E. coli UT189; 15 mg/kg/dose sc every 4 hours", "value": "0.66 Log10 cfu/g or mL"}, {"measurement": "Reduction in burden from vehicle control, Bladder 72 hr", "setting": "E. coli UT189; 45 mg/kg/dose sc every 4 hours", "value": "1.38 Log10 cfu/g or mL"}, {"measurement": "Reduction in burden from vehicle control, Kidney 72 hr", "setting": "E. coli UT189; 45 mg/kg/dose sc every 4 hours", "value": "2.40 Log10 cfu/g or mL"}, {"measurement": "Reduction in burden from vehicle control, Urine 48 hr", "setting": "E. coli UT189; 45 mg/kg/dose sc every 4 hours", "value": "1.85 Log10 cfu/g or mL"}, {"measurement": "Reduction in burden from vehicle control, Urine 72 hr", "setting": "E. coli UT189; 45 mg/kg/dose sc every 4 hours", "value": "1.21 Log10 cfu/g or mL"}, {"measurement": "MIC", "setting": "[2]; [6]", "value": 8, "unit": "µg/mL"}, {"measurement": "MIC", "setting": "[2]; [7]", "value": 8, "unit": "µg/mL"}, {"measurement": "MIC", "setting": "[2]; [5]", "value": 0.25, "unit": "µg/mL"}, {"measurement": "MIC", "setting": "[2]; Escherichia coli, BAA2469, read-out: Antibacterial Activity (MIC), G = E. coli BAA-2469", "value": 1.59, "unit": "µg/mL"}, {"measurement": "MIC", "setting": "[2]; [8]", "value": 16, "unit": "µg/mL"}, {"measurement": "MIC", "setting": "[2]; [9]", "value": 32, "unit": "µg/mL"}]}
{"smiles": "CC[C@H](C)[C@H](N)C(=O)N=S(N)(=O)c1cc2sccc2s1", "note": "(stereo partly drawn) [ANASIA-138]", "values": [{"measurement": "IC50", "setting": "[1]", "value": 0.383, "unit": "µM"}, {"measurement": "IC50 at 24 h", "setting": "[4]", "value": "> 64", "unit": "µg/mL"}, {"measurement": "MIC", "setting": "[2]; [6]", "value": "> 64", "unit": "µg/mL"}, {"measurement": "MIC", "setting": "[2]; [7]", "value": "> 64", "unit": "µg/mL"}, {"measurement": "MIC", "setting": "[2]; [5]", "value": "> 64", "unit": "µg/mL"}, {"measurement": "MIC", "setting": "[2]; Haemophilus influenzae, ATCC49247, read-out: Antibacterial Activity (MIC), F = H. influenzae ATCC 49247", "value": 16, "unit": "µg/mL"}, {"measurement": "MIC", "setting": "[2]; [8]", "value": "> 64", "unit": "µg/mL"}, {"measurement": "MIC", "setting": "[2]; [9]", "value": "> 64", "unit": "µg/mL"}]}
{"smiles": "O=C(O)c1cn(C2CC2)c2cc(N3CCNCC3)c(F)cc2c1=O", "note": "[Cinprofloxacin]", "values": [{"measurement": "Reduction in burden from vehicle control, Bladder 72 hr", "setting": "E. coli UT189; [10]", "value": "2.74 Log10 cfu/g or mL"}, {"measurement": "Reduction in burden from vehicle control, Kidney 72 hr", "setting": "E. coli UT189; [10]", "value": "4.12 Log10 cfu/g or mL"}, {"measurement": "Reduction in burden from vehicle control, Urine 48 hr", "setting": "E. coli UT189; [10]", "value": "5.32 Log10 cfu/g or mL"}, {"measurement": "Reduction in burden from vehicle control, Urine 72 hr", "setting": "E. coli UT189; [10]", "value": "4.76 Log10 cfu/g or mL"}]}
